Assay results reported in patent US9708318B2, “Bicyclic heterocycles as FGFR4 inhibitors” (Incyte Corporation, priority 2015, dated 2017).
Read-outs that look alike come from different tables or passages of the source.

How the values were obtained:
[1] = target: FGFR2 (Homo sapiens (Human), UniProt P21802); test: FGFR Enzymatic Assay (FRET peptide phosphorylation), FGFR2; format: biochemical
Description: (§1) The inhibitor potency of the exemplified compounds was measured in an enzyme assay that measures peptide phosphorylation using FRET measurements to detect product formation. Inhibitors were serially diluted in DMSO and a volume of 0.5 μL was transferred to the wells of a 384-well plate.
(§2) The enzymes were purchased from Millipore or Invitrogen.
(§3) GraphPad prism3 was used to analyze the data.

[2] = target: FGFR3 enzyme (Homo sapiens (Human), UniProt P22607); test: FGFR Enzymatic Assay (FRET peptide phosphorylation), FGFR3; format: biochemical; details: for IC50: read-out: FGFR3 IC50; for FGFR1/FGFR3 IC50 ratio / FGFR4/FGFR3 IC50 ratio: FGFR3 selectivity
Description: as §1, §3

[3] = target: FGFR4 (Homo sapiens (Human), UniProt P22455); test: FGFR Enzymatic Assay (FRET peptide phosphorylation), FGFR4; format: biochemical; details: for FGFR1/FGFR4 IC50 ratio / FGFR2/FGFR4 IC50 ratio / FGFR3/FGFR4 IC50 ratio: FGFR4 selectivity
Description: as §1, §2, §3

[4] = target: FGFR1 (Homo sapiens (Human), UniProt P11362); test: FGFR Enzymatic Assay (FRET peptide phosphorylation), FGFR1
[5] = pre-incubated for 5 to 10 minutes
[6] = FGFR1 IC50 (nM), pre-incubated for 5 to 10 minutes
[7] = read-out: FGFR1 IC50, pre-incubated for 4 hours
[8] = FGFR1 IC50 (nM), pre-incubated for 4 hours

Chain of FGFR2 (P21802 22-821): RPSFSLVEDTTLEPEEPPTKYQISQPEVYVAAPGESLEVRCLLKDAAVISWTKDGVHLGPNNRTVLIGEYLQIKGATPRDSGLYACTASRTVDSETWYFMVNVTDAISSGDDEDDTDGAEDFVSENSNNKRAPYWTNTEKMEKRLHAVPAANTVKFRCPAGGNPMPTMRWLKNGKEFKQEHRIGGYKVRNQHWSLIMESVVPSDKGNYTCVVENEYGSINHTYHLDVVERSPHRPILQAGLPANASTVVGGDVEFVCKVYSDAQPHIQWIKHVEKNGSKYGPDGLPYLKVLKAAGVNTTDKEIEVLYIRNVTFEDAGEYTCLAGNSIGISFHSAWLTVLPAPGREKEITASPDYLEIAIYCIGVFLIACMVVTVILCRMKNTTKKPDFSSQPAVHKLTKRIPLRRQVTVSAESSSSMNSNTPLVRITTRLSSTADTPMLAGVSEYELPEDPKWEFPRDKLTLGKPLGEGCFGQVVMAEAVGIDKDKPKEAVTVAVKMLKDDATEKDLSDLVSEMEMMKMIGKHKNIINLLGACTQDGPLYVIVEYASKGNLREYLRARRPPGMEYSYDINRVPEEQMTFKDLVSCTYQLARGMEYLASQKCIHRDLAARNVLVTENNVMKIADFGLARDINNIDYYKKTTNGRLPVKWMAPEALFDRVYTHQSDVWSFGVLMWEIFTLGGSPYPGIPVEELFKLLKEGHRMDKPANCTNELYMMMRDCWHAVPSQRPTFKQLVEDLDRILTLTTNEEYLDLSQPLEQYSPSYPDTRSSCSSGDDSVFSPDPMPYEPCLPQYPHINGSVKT
Chain of FGFR3 enzyme (P22607 23-806): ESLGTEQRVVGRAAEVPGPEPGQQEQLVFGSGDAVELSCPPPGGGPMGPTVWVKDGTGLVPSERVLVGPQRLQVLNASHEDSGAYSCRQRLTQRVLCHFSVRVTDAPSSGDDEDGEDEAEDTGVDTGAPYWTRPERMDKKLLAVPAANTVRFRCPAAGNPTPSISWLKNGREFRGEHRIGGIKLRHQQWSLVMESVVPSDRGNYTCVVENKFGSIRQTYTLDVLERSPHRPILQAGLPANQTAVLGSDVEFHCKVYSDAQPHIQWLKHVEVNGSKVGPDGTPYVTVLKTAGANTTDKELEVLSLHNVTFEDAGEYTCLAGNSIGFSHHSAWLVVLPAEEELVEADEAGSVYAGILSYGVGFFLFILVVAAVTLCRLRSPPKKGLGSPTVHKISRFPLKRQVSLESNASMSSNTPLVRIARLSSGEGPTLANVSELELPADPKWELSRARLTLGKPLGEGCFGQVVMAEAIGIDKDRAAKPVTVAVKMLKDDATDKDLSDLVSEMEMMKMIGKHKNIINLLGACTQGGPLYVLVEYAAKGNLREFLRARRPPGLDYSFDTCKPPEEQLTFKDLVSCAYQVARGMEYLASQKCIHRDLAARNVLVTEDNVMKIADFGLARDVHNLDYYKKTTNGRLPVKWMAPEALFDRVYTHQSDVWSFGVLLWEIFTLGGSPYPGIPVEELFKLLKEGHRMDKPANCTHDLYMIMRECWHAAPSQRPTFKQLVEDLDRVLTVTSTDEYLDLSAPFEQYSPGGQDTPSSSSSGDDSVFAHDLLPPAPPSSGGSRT
Chain of FGFR1 (P11362 22-822): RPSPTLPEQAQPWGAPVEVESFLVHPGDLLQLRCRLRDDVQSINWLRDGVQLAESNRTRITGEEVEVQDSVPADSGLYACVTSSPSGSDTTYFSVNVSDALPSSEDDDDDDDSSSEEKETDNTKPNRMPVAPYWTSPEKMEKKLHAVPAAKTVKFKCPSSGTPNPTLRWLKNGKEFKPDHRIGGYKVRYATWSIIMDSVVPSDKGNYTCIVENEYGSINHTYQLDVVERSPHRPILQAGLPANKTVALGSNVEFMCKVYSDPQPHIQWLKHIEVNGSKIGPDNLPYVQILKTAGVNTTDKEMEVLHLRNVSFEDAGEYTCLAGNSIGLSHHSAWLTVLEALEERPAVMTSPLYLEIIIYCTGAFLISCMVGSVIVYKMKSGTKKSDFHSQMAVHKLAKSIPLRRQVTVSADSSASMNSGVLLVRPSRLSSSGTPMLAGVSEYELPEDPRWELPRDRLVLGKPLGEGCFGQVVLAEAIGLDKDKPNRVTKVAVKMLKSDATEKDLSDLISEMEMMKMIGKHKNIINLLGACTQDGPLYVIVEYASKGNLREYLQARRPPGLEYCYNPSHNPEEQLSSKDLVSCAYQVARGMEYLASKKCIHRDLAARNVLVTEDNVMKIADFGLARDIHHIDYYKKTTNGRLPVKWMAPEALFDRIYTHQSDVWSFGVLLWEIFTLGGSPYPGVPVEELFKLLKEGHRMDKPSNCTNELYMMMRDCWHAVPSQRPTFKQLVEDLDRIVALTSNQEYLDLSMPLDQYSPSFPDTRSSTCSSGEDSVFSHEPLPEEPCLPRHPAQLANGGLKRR
Chain of FGFR4 (P22455 22-802): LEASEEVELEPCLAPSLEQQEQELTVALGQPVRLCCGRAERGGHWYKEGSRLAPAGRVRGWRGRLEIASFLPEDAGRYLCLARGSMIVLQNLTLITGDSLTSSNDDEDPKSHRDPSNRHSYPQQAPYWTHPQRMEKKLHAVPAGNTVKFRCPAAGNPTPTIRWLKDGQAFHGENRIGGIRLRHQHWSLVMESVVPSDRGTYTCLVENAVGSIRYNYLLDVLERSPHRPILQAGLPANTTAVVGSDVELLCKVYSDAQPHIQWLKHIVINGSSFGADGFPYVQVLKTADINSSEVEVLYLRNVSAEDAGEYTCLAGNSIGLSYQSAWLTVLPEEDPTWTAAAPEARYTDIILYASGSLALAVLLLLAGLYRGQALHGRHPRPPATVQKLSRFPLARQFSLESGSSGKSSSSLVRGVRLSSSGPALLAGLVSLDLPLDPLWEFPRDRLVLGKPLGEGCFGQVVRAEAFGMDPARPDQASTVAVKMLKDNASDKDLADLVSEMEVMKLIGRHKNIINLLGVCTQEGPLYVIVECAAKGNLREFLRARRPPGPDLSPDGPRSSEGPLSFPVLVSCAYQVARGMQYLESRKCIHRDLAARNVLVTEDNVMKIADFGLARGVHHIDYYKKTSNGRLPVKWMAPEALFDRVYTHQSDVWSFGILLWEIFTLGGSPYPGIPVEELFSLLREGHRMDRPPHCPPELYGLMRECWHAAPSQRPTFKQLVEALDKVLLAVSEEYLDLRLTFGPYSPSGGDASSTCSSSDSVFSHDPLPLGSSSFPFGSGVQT

Row | SMILES | IC50 [1, 5] [nM] | IC50 [2, 5] [nM] | IC50 [3, 5] [nM] | IC50 [4, 6] [nM] | IC50 ([1]; pre-incubated for 4 hours) [nM] | FGFR1/FGFR3 IC50 ratio ([2]; pre-incubated for 4 hours) | IC50 ([2]; pre-incubated for 4 hours) [nM] | FGFR1/FGFR4 IC50 ratio ([3]; pre-incubated for 4 hours) | FGFR2/FGFR4 IC50 ratio ([3]; pre-incubated for 4 hours) | FGFR3/FGFR4 IC50 ratio ([3]; pre-incubated for 4 hours) | IC50 ([3]; pre-incubated for 4 hours) [nM] | IC50 ([4]; read-out: FGFR1 IC50, pre-incubated for 5 to 10 minutes) [nM] | IC50 [4, 7] [nM] | FGFR4/FGFR3 IC50 ratio ([2]; pre-incubated for 4 hours) | IC50 [4, 8] [nM] | FGFR1/FGFR4 IC50 ratio [3, 5] | FGFR2/FGFR4 IC50 ratio [3, 5] | FGFR3/FGFR4 IC50 ratio [3, 5]
1 | CCn1cnc(-c2cc3c(cn2)CN(c2c(F)c(OC)cc(OC)c2F)C(=O)C32CC2)c1 [Example 53, 2′-(2,6-difluoro-3,5-dimethoxyphenyl)-6′-(1-ethyl-1H-imidazol-4-yl)-1′H-spiro[cyclopropane-1,4′-[2,7]naphthyridin]-3′(2′H)-one] | – | – | – | – | < 10 | >5 | < 10 | – | – | – | 10 to 30 | – | – | >5 | 10 to 30 | – | – | –
2 | COc1cc(OC)c(F)c(N2Cc3cnc(-c4cn(C)nc4C)cc3N(CC3CC3)C2=O)c1F [Example 29, 1-(cyclopropylmethyl)-3-(2,6-difluoro-3,5-dimethoxyphenyl)-7-(1,3-dimethyl-1H-pyrazol-4-yl)-3,4-dihydropyrido[4,3-d]pyrimidin-2(1H)-one] | – | – | – | – | < 10 | >1 | < 10 | – | – | – | 10 to 30 | – | – | >5 | 10 to 30 | – | – | –
3 | COc1cc(OC)c(F)c(N2Cc3cnc(-c4cn(C)nc4C)cc3N(c3cn[nH]c3)C2=O)c1F [Example 129, 3-(2,6-difluoro-3,5-dimethoxyphenyl)-7-(1,3-dimethyl-1H-pyrazol-4-yl)-1-(1H-pyrazol-4-yl)-3,4-dihydropyrido[4,3-d]pyrimidin-2(1H)-one] | – | – | – | – | < 10 | >5 | < 10 | – | – | – | 30 to 200 | – | – | >10 | 10 to 30 | – | – | –
4 | COc1cc(OC)c(F)c(N2Cc3cnc(-c4cn(C)nc4C)cc3N(c3cnn(C4CC4)c3)C2=O)c1F [Example 130, 1-(1-cyclopropyl-1H-pyrazol-4-yl)-3-(2,6-difluoro-3,5-dimethoxyphenyl)-7-(1,3-dimethyl-1H-pyrazol-4-yl)-3,4-dihydropyrido[4,3-d]pyrimidin-2(1H)-one] | – | – | – | – | 10 to 30 | >5 | 10 to 30 | – | – | – | 30 to 200 | – | – | >5 | 30 to 200 | – | – | –
5 | COc1cccc(N2C(=O)N(c3c(F)c(OC)cc(OC)c3F)Cc3cnc(-c4cn(C)nc4C)cc32)c1 [Example 109, 3-(2,6-difluoro-3,5-dimethoxyphenyl)-7-(1,3-dimethyl-1H-pyrazol-4-yl)-1-(3-methoxyphenyl)-3,4-dihydropyrido[4,3-d]pyrimidin-2(1H)-one] | – | – | – | – | < 10 | >3 | < 10 | – | – | – | 30 to 200 | – | – | >10 | 10 to 30 | – | – | –
6 | COc1cc(OC)c(F)c(N2Cc3cnc(-c4cncc(N)c4)cc3C3(CC3)C2=O)c1F [Example 4, 6′-(5-aminopyridin-3-yl)-2′-(2,6-difluoro-3,5-dimethoxyphenyl)-1′H-spiro[cyclopropane-1,4′-[2,7]naphthyridin]-3′(2′H)-one] | 10 to 30 | 10 to 30 | < 10 | 30 to 200 | 30 to 200 | >1 | 30 to 200 | >25 | >10 | >10 | < 10 | – | – | – | 30 to 200 | >10 | >10 | >5

Continued, in another order:

Row | IC50 [1, 5] [nM] | IC50 [2, 5] [nM] | IC50 [3, 5] [nM] | IC50 [4, 6] [nM] | IC50 ([1]; pre-incubated for 4 hours) [nM] | FGFR1/FGFR3 IC50 ratio ([2]; pre-incubated for 4 hours) | IC50 ([2]; pre-incubated for 4 hours) [nM] | FGFR1/FGFR4 IC50 ratio ([3]; pre-incubated for 4 hours) | FGFR2/FGFR4 IC50 ratio ([3]; pre-incubated for 4 hours) | FGFR3/FGFR4 IC50 ratio ([3]; pre-incubated for 4 hours) | IC50 ([3]; pre-incubated for 4 hours) [nM] | IC50 ([4]; read-out: FGFR1 IC50, pre-incubated for 5 to 10 minutes) [nM] | IC50 [4, 7] [nM] | FGFR4/FGFR3 IC50 ratio ([2]; pre-incubated for 4 hours) | IC50 [4, 8] [nM] | SMILES | FGFR1/FGFR4 IC50 ratio [3, 5] | FGFR2/FGFR4 IC50 ratio [3, 5] | FGFR3/FGFR4 IC50 ratio [3, 5]
7 | 10 to 30 | 10 to 30 | 30 to 200 | 30 to 200 | – | – | – | – | – | – | – | – | – | – | – | COc1cc(OC)c(F)c(N2Cc3cnc(-c4ccc(C5(C#N)CCC5)nc4)cc3N(c3cccnc3)C2=O)c1F [Example 138, 1-(5-(3-(2,6-difluoro-3,5-dimethoxyphenyl)-2-oxo-1-(pyridin-3-yl)-1,2,3,4-tetrahydropyrido[4,3-d]pyrimidin-7-yl)pyridin-2-yl)cyclobutanecarbonitrile] | – | – | –
8 | > 200 | 30 to 200 | < 10 | – | > 200 | >3 | 30 to 200 | >100 | >100 | >25 | < 10 | > 200 | > 200 | – | – | COc1cc(OC)c(F)c(N2Cc3cnc(-c4cncc(N5CCOCC5)c4)cc3C3(CC3)C2=O)c1F [Example 6, 2′-(2,6-difluoro-3,5-dimethoxyphenyl)-6′-(5-morpholinopyridin-3-yl)-1′H-spiro[cyclopropane-1,4′-[2,7]naphthyridin]-3′(2′H)-one] | >100 | >100 | >50
9 | – | – | – | – | 10 to 30 | >5 | < 10 | – | – | – | 30 to 200 | – | – | >10 | 30 to 200 | COc1cc(OC)c(F)c(N2Cc3cnc(-c4cn(C)nc4C)cc3N(Cc3cnccn3)C2=O)c1F [Example 85, 3-(2,6-difluoro-3,5-dimethoxyphenyl)-7-(1,3-dimethyl-1H-pyrazol-4-yl)-1-(pyrazin-2-ylmethyl)-3,4-dihydropyrido[4,3-d]pyrimidin-2(1H)-one] | – | – | –
10 | – | – | – | – | 10 to 30 | >5 | 10 to 30 | – | – | – | 30 to 200 | – | – | >10 | 30 to 200 | COc1cc(OC)c(F)c(N2Cc3cnc(-c4cn(C)nc4C)cc3N(Cc3ccc(F)c(F)c3)C2=O)c1F [Example 73, 3-(2,6-difluoro-3,5-dimethoxyphenyl)-1-(3,4-difluorobenzyl)-7-(1,3-dimethyl-1H-pyrazol-4-yl)-3,4-dihydropyrido[4,3-d]pyrimidin-2(1H)-one] | – | – | –
11 | – | – | – | – | < 10 | >5 | < 10 | – | – | – | 10 to 30 | – | – | – | 10 to 30 | COc1cc(OC)c(F)c(N2Cc3cnc(-c4cn(C)nc4C)cc3C3(CC3)C2=O)c1F [Example 21, 2′-(2,6-difluoro-3,5-dimethoxyphenyl)-6′-(1,3-dimethyl-1H-pyrazol-4-yl)-1′,2′-dihydro-3′H-spiro[cyclopropane-1,4′-[2,7]naphthyridin]-3′-one] | – | – | –
12 | – | – | – | – | > 200 | – | > 200 | >100 | >10 | >25 | 10 to 30 | – | > 200 | – | – | COc1cc(OC)c(F)c(N2Cc3cnc(-c4nn(CC#N)cc4C#N)cc3C3(CC3)C2=O)c1F [Example 174, 1-(cyanomethyl)-3-(2′-(2,6-difluoro-3,5-dimethoxyphenyl)-3′-oxo-2′,3′-dihydro-1′H-spiro[cyclopropane-1,4′-[2,7]naphthyridine]-6′-yl)-1H-pyrazole-4-carbonitrile] | – | – | –
13 | – | – | – | – | < 10 | >5 | < 10 | – | – | – | < 10 | – | < 10 | >10 | – | COc1cc(OC)c(F)c(N2Cc3cnc(-c4cn(C)nc4C)cc3N(Cc3cnn(C)c3)C2=O)c1F [Example 72, 3-(2,6-difluoro-3,5-dimethoxyphenyl)-7-(1,3-dimethyl-1H-pyrazol-4-yl)-1-((1-methyl-1H-pyrazol-4-yl)methyl)-3,4-dihydropyrido[4,3-d]pyrimidin-2(1H)-one] | – | – | –
14 | 30 to 200 | 10 to 30 | > 200 | 30 to 200 | 30 to 200 | >10 | 10 to 30 | – | – | – | 30 to 200 | – | > 200 | >10 | – | COc1cc(OC)c(F)c(N2Cc3cnc(-c4cn(C)nc4C)cc3N(c3ccnnc3)C2=O)c1F [Example 57, 3-(2,6-difluoro-3,5-dimethoxyphenyl)-7-(1,3-dimethyl-1H-pyrazol-4-yl)-1-(pyridazin-4-yl)-3,4-dihydropyrido[4,3-d]pyrimidin-2(1H)-one] | – | – | –
